In ChEMBL document CHEMBL3112438, “Structure-based optimization of cyclopropyl urea derivatives as potent soluble epoxide hydrolase inhibitors for potential decrease of renal injury without hypotensive action” (Bioorg Med Chem, 2014):
Converted amounts (≈) assume the structure as drawn. The source made the active and inactive calls. No cut-off for these calls is given here.

Legend:
[1] = target: T1, Bifunctional epoxide hydrolase 2 (Rattus norvegicus, UniProt P80299); test: Inhibition of rat recombinant soluble epoxide hydrolase after 1 hr by fluorescence assay
T1 sequence (P80299 whole entry): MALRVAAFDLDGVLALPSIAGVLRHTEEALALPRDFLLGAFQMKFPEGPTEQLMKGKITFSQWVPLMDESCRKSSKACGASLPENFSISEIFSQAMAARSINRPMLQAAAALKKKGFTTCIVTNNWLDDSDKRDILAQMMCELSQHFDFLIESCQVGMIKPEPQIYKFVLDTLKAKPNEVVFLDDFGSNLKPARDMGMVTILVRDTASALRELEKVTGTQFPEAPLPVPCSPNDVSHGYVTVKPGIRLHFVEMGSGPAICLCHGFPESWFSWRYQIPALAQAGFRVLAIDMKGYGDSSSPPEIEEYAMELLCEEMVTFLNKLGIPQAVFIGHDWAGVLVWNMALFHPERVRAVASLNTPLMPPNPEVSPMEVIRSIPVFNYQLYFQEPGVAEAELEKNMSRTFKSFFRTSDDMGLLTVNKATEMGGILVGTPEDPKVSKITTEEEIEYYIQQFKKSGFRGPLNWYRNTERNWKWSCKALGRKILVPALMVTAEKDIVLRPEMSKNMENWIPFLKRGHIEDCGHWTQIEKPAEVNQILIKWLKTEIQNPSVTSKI

[2] = target: T2, Bifunctional epoxide hydrolase 2 (Homo sapiens, UniProt P34913); test: Inhibition of human recombinant soluble epoxide hydrolase after 1 hr by fluorescence assay
T2 sequence (P34913 whole entry): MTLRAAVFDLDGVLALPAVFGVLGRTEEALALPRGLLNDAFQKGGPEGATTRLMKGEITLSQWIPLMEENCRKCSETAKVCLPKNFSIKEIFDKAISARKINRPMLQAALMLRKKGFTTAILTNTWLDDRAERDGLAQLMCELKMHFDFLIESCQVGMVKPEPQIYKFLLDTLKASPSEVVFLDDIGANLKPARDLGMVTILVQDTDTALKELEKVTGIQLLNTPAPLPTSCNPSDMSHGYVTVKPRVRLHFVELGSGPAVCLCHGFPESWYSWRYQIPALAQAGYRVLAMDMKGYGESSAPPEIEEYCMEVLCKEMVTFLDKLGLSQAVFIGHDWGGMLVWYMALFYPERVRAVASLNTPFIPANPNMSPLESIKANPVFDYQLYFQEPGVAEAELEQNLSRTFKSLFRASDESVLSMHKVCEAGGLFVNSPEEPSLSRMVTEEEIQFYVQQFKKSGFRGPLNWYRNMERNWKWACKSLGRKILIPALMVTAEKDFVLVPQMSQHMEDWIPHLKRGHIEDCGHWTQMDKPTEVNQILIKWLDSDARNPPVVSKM

[3] = Aqueous solubility of the compound at pH 7.4 after 90 mins; type: physicochemical
Liver microsome [4] = test: Intrinsic clearance in human liver microsomes measured per mg of protein at 1 uM after 30 mins by LC/MS/MS analysis; type: ADME; conditions: 0.5 h
Rattus norvegicus [5] = test: Bioavailability in Sprague-Dawley rat at 1 mg/kg, iv and 10 mg/kg, po; type: ADME, organism-based; conditions: in vivo
Rattus norvegicus [6] = test: AUC in Sprague-Dawley rat at 10 mg/kg, po; type: ADME, organism-based, Plasma; set-up: dose 10 mg/kg, route oral; conditions: in vivo
Liver microsome [7] = test: Intrinsic clearance in rat liver microsomes measured per mg of protein at 1 uM after 30 mins by LC/MS/MS analysis; type: ADME; conditions: 0.5 h
Cytochrome P450 2C19 [8] = target: T3, Cytochrome P450 2C19 (Homo sapiens, UniProt P33261); test: Inhibition of CYP2C19 in human liver microsomes after 10 mins by LC/MS/MS analysis; type: ADME
T3 sequence (P33261 whole entry): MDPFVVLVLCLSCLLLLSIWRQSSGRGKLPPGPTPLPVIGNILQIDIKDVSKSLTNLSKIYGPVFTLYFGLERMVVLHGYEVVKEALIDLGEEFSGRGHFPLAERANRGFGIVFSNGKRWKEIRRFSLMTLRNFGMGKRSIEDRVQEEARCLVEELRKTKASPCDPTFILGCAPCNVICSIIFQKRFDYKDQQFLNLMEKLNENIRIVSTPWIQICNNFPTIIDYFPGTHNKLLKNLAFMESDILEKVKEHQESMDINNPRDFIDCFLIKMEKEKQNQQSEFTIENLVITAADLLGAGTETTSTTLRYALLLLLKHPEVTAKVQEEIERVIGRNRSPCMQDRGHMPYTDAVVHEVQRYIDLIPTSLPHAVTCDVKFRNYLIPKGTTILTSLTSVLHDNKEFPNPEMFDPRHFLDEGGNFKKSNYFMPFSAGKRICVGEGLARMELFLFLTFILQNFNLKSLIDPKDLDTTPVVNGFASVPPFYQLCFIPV

Rattus norvegicus [9] = test: Ex vivo inhibition of soluble epoxide hydrolase in Sprague-Dawley rat whole blood assessed as inhibition of 14,15-DHET production at 100 mg/kg, po measured after 1 to 6 hrs by ELISA relative to vehicle-treated control; type: functional
Rattus norvegicus [10] = test: Ex vivo inhibition of soluble epoxide hydrolase in po dosed Sprague-Dawley rat assessed as inhibition of 14,15-DHET production measured after 1 to 24 hrs by ELISA; type: functional, organism-based
Rattus norvegicus [11] = test: Renal toxicity in Sprague-Dawley rat DOCA-salt model assessed as effect on N-acetyl-beta-D-glucosaminidase level at 100 mg/kg, po measured on day 28 post last dose; type: organism-based; set-up: dose 100 mg/kg, route oral; conditions: in vivo
Rattus norvegicus [12] = test: Renoprotective activity in Sprague-Dawley rat DOCA-salt model assessed as decrease in urinary MCP-1 excretion at 100 mg/kg, po measured on day 28 post last dose; type: functional, organism-based; set-up: dose 100 mg/kg; conditions: Urine
Rattus norvegicus [13] = test: Antihypertensive activity in Sprague-Dawley rat DOCA-salt model assessed as decrease in systolic blood pressure at 100 mg/kg, po measured on day 28 post last dose by tail-cuff method; type: functional, organism-based; set-up: dose 100 mg/kg; conditions: Artery
Cytochrome P450 2C8 [14] = target: T4, Cytochrome P450 2C8 (Homo sapiens, UniProt P10632); test: Inhibition of CYP2C8 in human liver microsomes after 10 mins by LC/MS/MS analysis; type: ADME
T4 sequence (P10632 whole entry): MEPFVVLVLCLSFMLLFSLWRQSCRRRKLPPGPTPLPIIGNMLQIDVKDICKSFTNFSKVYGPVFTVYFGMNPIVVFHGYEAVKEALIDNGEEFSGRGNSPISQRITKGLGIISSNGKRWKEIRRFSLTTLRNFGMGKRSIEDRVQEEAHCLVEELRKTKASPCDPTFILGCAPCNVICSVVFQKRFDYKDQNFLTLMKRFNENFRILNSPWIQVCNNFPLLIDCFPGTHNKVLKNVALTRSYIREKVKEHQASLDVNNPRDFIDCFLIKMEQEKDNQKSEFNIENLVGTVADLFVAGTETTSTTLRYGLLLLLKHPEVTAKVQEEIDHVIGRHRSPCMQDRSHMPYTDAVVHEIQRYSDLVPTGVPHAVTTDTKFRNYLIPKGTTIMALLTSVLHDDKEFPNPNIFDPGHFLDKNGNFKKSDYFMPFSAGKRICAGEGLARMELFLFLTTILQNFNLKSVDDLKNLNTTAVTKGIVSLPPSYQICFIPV

Rattus norvegicus [15] = test: Renoprotective activity in Sprague-Dawley rat DOCA-salt model assessed as decrease in urinary albumin excretion at 100 mg/kg, po measured on day 28 post last dose; type: functional, organism-based; set-up: dose 100 mg/kg; conditions: Urine
Cytochrome P450 2C19 [16] = target: T3, Cytochrome P450 2C19; test: Inhibition of CYP2C19 in human liver microsomes after 10 mins by mechanism-based assay; type: ADME
Cytochrome P450 2C8 [17] = target: T4, Cytochrome P450 2C8; test: Inhibition of CYP2C8 in human liver microsomes after 10 mins by mechanism-based assay; type: ADME

SMILES	IC50 [1]	IC50 [2]	other results
Cc1ccccc1OC1CCN(C(=O)N[C@H]2C[C@@H]2c2ccccc2)CC1 (racemic)	0.0042 µM	0.0031 µM	solubility at 1.5 h [3]: < 0.2 µg/mL
O=C(O)Cc1ccc(OC2CCN(C(=O)N[C@H]3C[C@@H]3c3ccccc3)CC2)c(Cl)c1 (racemic)	0.0066 µM	0.0043 µM	CLint (Liver microsome [4]): < 10 µL/min/mg; F (Rattus norvegicus [5]): 63%; AUC (Rattus norvegicus [6]): 30400 ng·h/mL; CLint (Liver microsome [7]): < 10 µL/min/mg; IC50 (Cytochrome P450 2C19 [8]): > 50 µM; inhibition in vivo at 100 mg/kg (Rattus norvegicus [9]): < 20%; inhibition (Rattus norvegicus [10]): Dose-dependent effect; solubility at 1.5 h [3]: > 150 µg/mL; Activity (Rattus norvegicus [11]): Non-toxic; Activity (Rattus norvegicus [12]): Active; Activity (Rattus norvegicus [13]): inactive; IC50 (Cytochrome P450 2C8 [14]): > 50 µM; Activity (Rattus norvegicus [15]): Active
O=C(N[C@H]1C[C@@H]1c1ccccc1)N1CCC(Oc2cnccn2)CC1 (racemic)	0.0256 µM	0.0267 µM	–
CC(C)c1noc(C2CCN(C(=O)N[C@H]3C[C@@H]3c3ccccc3)CC2)n1 (relative stereo)	0.0083 µM	–	CLint (Liver microsome [4]): < 10 µL/min/mg; inhibition (INH) (Cytochrome P450 2C19 [16]): Active; CLint (Liver microsome [7]): 79 µL/min/mg; solubility at 1.5 h [3]: 41 µg/mL (≈ 116 µM); inhibition (INH) (Cytochrome P450 2C8 [17]): Active
O=C(N[C@H]1C[C@@H]1c1ccccc1)N1CCC(OC(c2ccccc2)c2ccccc2)CC1 (racemic)	0.0052 µM	0.0271 µM	–
O=C(N[C@H]1C[C@@H]1c1ccccc1)N1CCC(Oc2ncccn2)CC1 (racemic)	> 0.1 µM	0.0942 µM	–
O=C(N[C@H]1C[C@@H]1c1ccccc1)N1CCC(Oc2ccccn2)CC1 (racemic)	0.0354 µM	0.0274 µM	–
O=C(N[C@H]1C[C@@H]1c1ccccc1)N1CCC(Oc2cccc(C(F)(F)F)c2)CC1 (racemic)	0.0105 µM	0.0158 µM	–
O=C(O)c1ccccc1OC1CCN(C(=O)N[C@H]2C[C@@H]2c2ccccc2)CC1 (racemic)	> 0.1 µM	> 0.1 µM	–
O=C(N[C@H]1C[C@@H]1c1ccccc1)N1CCC(Oc2cccc(-c3ccccc3)c2)CC1 (racemic)	0.0059 µM	0.0107 µM	–
O=C(O)c1cccc(OC2CCN(C(=O)N[C@H]3C[C@@H]3c3ccccc3)CC2)c1 (racemic)	> 0.1 µM	> 0.1 µM	CLint (Liver microsome [4]): < 10 µL/min/mg; CLint (Liver microsome [7]): < 10 µL/min/mg; solubility at 1.5 h [3]: > 150 µg/mL
O=C(N[C@H]1C[C@@H]1c1ccccc1)N1CCC(Oc2ccccc2-c2ccccc2)CC1 (racemic)	0.0207 µM	0.0147 µM	–
O=C(N[C@H]1C[C@@H]1c1ccccc1)N1CCC(Oc2ccccc2Cl)CC1 (racemic)	0.0035 µM	0.002 µM	–
O=C(O)c1ccc(OC2CCN(C(=O)N[C@H]3C[C@@H]3c3ccccc3)CC2)c(Cl)c1 (racemic)	0.0041 µM	0.0026 µM	CLint (Liver microsome [4]): < 10 µL/min/mg; F (Rattus norvegicus [5]): 31%; AUC (Rattus norvegicus [6]): 15900 ng·h/mL; CLint (Liver microsome [7]): < 10 µL/min/mg; IC50 (Cytochrome P450 2C19 [8]): > 50 µM; solubility at 1.5 h [3]: > 150 µg/mL; IC50 (Cytochrome P450 2C8 [14]): > 50 µM
COc1ccccc1OC1CCN(C(=O)N[C@H]2C[C@@H]2c2ccccc2)CC1 (racemic)	0.0128 µM	0.0113 µM	–
O=C(N[C@H]1C[C@@H]1c1ccccc1)N1CCC(Oc2ccccc2C(F)(F)F)CC1 (racemic)	0.0032 µM	0.0021 µM	–

Second part, led by results:

IC50 [1]	IC50 [2]	SMILES	other results
0.008 µM	0.012 µM	O=C(N[C@H]1C[C@@H]1c1ccccc1)N1CCC(Oc2cccc(Cl)c2)CC1 (racemic)	–
0.0202 µM	0.0252 µM	O=C(N[C@H]1C[C@@H]1c1ccccc1)N1CCC(Oc2cccnc2)CC1 (racemic)	–
0.0051 µM	0.0074 µM	COc1cccc(OC2CCN(C(=O)N[C@H]3C[C@@H]3c3ccccc3)CC2)c1 (relative stereo)	–
0.005 µM	0.0102 µM	COc1ccc(OC2CCN(C(=O)N[C@H]3C[C@@H]3c3ccccc3)CC2)cc1 (racemic)	–
0.0068 µM	0.0142 µM	Cc1ccc(OC2CCN(C(=O)N[C@H]3C[C@@H]3c3ccccc3)CC2)cc1 (racemic)	–
0.0089 µM	0.0298 µM	O=C(N[C@H]1C[C@@H]1c1ccccc1)N1CCC(Oc2ccc(C(F)(F)F)cc2)CC1 (relative stereo)	–
0.0093 µM	0.0224 µM	O=C(N[C@H]1C[C@@H]1c1ccccc1)N1CCC(Oc2ccc(Cl)cc2)CC1 (racemic)	–
0.0183 µM	0.018 µM	O=C(N[C@H]1C[C@@H]1c1ccccc1)N1CCC(Oc2ccccc2)CC1 (racemic)	–
0.0566 µM	0.0432 µM	O=C(O)Cc1ccc(OC2CCN(C(=O)N[C@H]3C[C@@H]3c3ccccc3)CC2)cc1 (relative stereo)	CLint (Liver microsome [4]): < 33 µL/min/mg; CLint (Liver microsome [7]): < 10 µL/min/mg; solubility at 1.5 h [3]: > 150 µg/mL
0.0066 µM	0.0033 µM	O=C(N[C@H]1C[C@@H]1c1ccccc1)N1CCC(Oc2ccc(-c3nnn[nH]3)cc2)CC1 (racemic)	CLint (Liver microsome [4]): < 33 µL/min/mg; CLint (Liver microsome [7]): < 10 µL/min/mg; solubility at 1.5 h [3]: > 150 µg/mL; IC50 (Cytochrome P450 2C8 [14]): 0.8 µM
0.0067 µM	0.012 µM	O=C(N[C@H]1C[C@@H]1c1ccccc1)N1CCC(Oc2ccc(-c3ccccc3)cc2)CC1 (racemic)	–
0.0322 µM	0.0303 µM	O=C(O)c1ccc(OC2CCN(C(=O)N[C@H]3C[C@@H]3c3ccccc3)CC2)cc1 (racemic)	CLint (Liver microsome [4]): < 10 µL/min/mg; CLint (Liver microsome [7]): < 10 µL/min/mg; solubility at 1.5 h [3]: > 150 µg/mL
0.0123 µM	0.0244 µM	O=C(N[C@H]1C[C@@H]1c1ccccc1)N1CCC(Oc2ccncc2)CC1 (racemic)	–
0.0065 µM	0.0089 µM	Cc1cccc(OC2CCN(C(=O)N[C@H]3C[C@@H]3c3ccccc3)CC2)c1 (racemic)	–
